molecular target: PI3 kinase alpha (Homo sapiens, UniProt P42336); experiment: PI3K ATP depletion assay (Biological Method 1, Assay 3; KinaseGlo luminescence); format: biochemical; conditions: ATP depletion assay; read-out: PI3 Kinase Alpha, IC50
Outline: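 Compound in DMSO was mixed with 10 nM PI3 kinase and 5 μg/mL phosphatidylinositol, and the reaction was started with 2 μM ATP. It ran to about 50% ATP depletion and was stopped with KinaseGlo.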

PI3 kinase alpha, sequence (P42336 whole entry): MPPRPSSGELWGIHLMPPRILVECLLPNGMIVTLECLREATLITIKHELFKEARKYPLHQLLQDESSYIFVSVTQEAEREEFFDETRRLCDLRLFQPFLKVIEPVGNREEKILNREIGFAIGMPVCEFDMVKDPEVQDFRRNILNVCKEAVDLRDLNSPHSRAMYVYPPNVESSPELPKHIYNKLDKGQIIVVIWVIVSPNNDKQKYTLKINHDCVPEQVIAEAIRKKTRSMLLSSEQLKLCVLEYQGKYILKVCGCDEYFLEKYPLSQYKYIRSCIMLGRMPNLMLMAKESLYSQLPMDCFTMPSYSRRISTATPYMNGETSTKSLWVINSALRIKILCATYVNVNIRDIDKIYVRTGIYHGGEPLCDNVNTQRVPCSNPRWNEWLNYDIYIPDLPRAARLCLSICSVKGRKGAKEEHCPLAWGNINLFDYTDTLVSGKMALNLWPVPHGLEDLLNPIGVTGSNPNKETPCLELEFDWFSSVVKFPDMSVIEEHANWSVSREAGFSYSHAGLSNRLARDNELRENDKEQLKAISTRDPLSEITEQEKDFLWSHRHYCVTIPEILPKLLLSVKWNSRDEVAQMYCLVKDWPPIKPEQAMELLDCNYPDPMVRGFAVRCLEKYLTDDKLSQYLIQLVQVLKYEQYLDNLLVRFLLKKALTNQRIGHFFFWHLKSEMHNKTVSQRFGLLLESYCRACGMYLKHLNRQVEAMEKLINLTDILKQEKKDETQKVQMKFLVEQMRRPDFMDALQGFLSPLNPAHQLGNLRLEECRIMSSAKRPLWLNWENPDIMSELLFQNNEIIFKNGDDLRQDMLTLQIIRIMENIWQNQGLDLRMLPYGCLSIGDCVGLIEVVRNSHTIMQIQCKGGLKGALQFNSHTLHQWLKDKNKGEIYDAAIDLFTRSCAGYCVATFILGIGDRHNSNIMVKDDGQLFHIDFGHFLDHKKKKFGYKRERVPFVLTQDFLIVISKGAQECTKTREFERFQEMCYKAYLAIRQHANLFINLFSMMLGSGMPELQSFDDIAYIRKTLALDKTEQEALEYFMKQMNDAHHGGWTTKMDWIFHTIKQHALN
PI3 kinase alpha, sequence (P27986 whole entry partner): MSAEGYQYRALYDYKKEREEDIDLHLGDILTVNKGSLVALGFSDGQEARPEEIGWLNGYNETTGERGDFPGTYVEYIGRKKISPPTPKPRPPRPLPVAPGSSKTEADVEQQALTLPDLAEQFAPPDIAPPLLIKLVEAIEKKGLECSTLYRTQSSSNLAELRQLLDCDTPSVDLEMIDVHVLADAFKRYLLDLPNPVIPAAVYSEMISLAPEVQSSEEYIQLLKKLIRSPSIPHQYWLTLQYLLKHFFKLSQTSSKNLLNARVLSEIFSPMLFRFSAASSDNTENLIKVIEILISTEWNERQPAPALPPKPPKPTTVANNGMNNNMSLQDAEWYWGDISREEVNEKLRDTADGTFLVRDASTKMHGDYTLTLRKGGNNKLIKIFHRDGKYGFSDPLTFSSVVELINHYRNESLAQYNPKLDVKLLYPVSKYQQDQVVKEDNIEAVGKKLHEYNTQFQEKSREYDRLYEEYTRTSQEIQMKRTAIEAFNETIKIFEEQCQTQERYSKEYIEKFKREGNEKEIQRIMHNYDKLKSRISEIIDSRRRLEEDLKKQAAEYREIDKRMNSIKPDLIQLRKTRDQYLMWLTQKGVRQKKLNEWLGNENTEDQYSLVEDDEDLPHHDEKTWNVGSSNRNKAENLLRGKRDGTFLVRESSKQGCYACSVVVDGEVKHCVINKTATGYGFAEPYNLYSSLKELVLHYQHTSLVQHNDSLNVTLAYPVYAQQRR

| SMILES | IC50 |
| --- | --- |
| CC(C)N1CCC(Oc2ccc(Nc3cc(-c4cnc(N)cc4C(F)(F)F)nc(N4CCOCC4)n3)cn2)C1 (stereo not drawn) [Compound 93] | < 1000 nM |
| Nc1ccc(-c2cc(Nc3ccc4ncccc4c3)nc(N3CCOCC3)n2)cn1 [Compound 82] | < 1000 nM |
| N#Cc1cc(N)ncc1-c1cc(Nc2ccncc2C(F)(F)F)nc(N2CCOCC2)n1 [Compound 94] | < 1000 nM |
| CC(=O)N1CCC(Oc2cc(-c3cnc(N)[nH]c3=O)nc(N3CCOCC3)n2)CC1 [Compound 30] | < 1000 nM |
| Nc1ncc(-c2cc(OC3CCN(C(=O)OC4CCCC4)CC3)nc(N3CCOCC3)n2)c(=O)[nH]1 [Compound 47] | < 1000 nM |
| Nc1ncc(-c2cc(Nc3ccc4nccnc4c3)nc(N3CCOCC3)n2)cn1 [Compound 38] | < 1000 nM |
| Nc1ncc(-c2cc(Nc3cccc(F)c3)nc(N3CCOCC3)n2)cn1 [Compound 111] | < 1000 nM |
| COC(=O)N1CCC(Oc2cc(-c3cnc(N)[nH]c3=O)nc(N3CCOCC3)n2)CC1 [Compound 31] | < 1000 nM |
| Nc1ncc(-c2cc(OC3CCN(C(=O)OC4CCCC4)CC3)nc(N3CCOCC3)n2)c(N)n1 [Compound 97] | < 1000 nM |
| CN(C)CCOc1ccc(Nc2cc(-c3cnc(N)nc3)nc(N3CCOCC3)n2)cn1 [Compound 36] | < 1000 nM |
| CC(C)C(=O)N1CCC(Oc2cc(-c3cnc(N)[nH]c3=O)nc(N3CCOCC3)n2)CC1 [Compound 49] | < 1000 nM |
| Nc1ncc(-c2cc(Nc3ccc4c(c3)OCCO4)nc(N3CCOCC3)n2)cn1 [Compound 67] | < 1000 nM |

More lines, now with the values ahead:

| IC50 | SMILES |
| --- | --- |
| < 1000 nM | COc1ccc2ncc(Nc3cc(-c4cnc(N)nc4C)nc(N4CCOCC4)n3)cc2c1 [Compound 154] |
| < 1000 nM | Nc1ccc(-c2cc(-n3ncc4c(N)cccc43)nc(N3CCOCC3)n2)cn1 [Compound 168] |
| < 1000 nM | Cn1cnnc1-c1cccc(Nc2cc(-c3cnc(N)cc3C(F)(F)F)nc(N3CCOCC3)n2)c1 [Compound 171] |
| < 1000 nM | COC(=O)N1CCC(Oc2cc(-c3cnc(N)cc3C(F)(F)F)nc(N3CCOCC3)n2)CC1 [Compound 117] |
| < 1000 nM | N#Cc1ccc(Nc2cc(-c3ccc(N)nc3)nc(N3CCOCC3)n2)cc1 [Compound 179] |
| < 1000 nM | N#Cc1ccnc(Nc2cc(-c3ccc(N)nc3)nc(N3CCOCC3)n2)c1 [Compound 152] |
| < 1000 nM | CS(=O)(=O)c1ccccc1Nc1cc(-c2ccc(N)nc2)nc(N2CCOCC2)n1 [Compound 141] |
| < 1000 nM | Nc1cc(C(F)(F)F)c(-c2cc(Nc3ccc(OC4CCNCC4)nc3)nc(N3CCOCC3)n2)cn1 [Compound 150] |
| < 1000 nM | CC(C)N1CCC(Oc2ccc(Nc3cc(-c4cnc(N)cc4C(F)(F)F)nc(N4CCOCC4)n3)cc2)CC1 [Compound 552] |

tested on: pSer473 Akt in A2780 cells; experiment: pSer473 Akt assay to monitor PI3K pathway in A2780 cells (Biological Method 2, MSD); format: cell-based; conditions: Homo sapiens, A2780; inhibition of Akt phosphorylation
Procedure: In this method, an assay for measuring the PI3K-mediated pSer473-Akt status after treatment with representative inhibitor compounds of the invention is described.
A2780 cells were cultured in DMEM supplemented with 10% FBS. L-glutamine, sodium pyruvate, and antibiotics. Cells were plated in the same medium at a density of 15,000 cells per well into 96 well tissue culture plates, with outside wells vacant, and allowed to adhere overnight.
Test compounds supplied in DMSO were diluted further into DMSO at 500 times the desired final concentrations before dilution into culture media to 2 times the final concentrations. Equal volumes of 2× compounds were added to the cells in 96 well plates and incubated at 37° C. for one hour. The media and compounds were then removed, the plates chilled and cells lysed in a lysis buffer (150 mM NaCl, 20 mM Tris pH 7.5, 1 mM EDTA, 1 mM EGTA, 1% Triton X-100) supplemented with phosphatase and protease inhibitors. After thorough mixing, lysates were transferred to both pSer473Akt and total Akt assay plates from Meso Scale Discovery (MSD), and incubated overnight with shaking at 4° C.
The assays were read on a SECTOR Imager 6000 instrument (Meso Scale Discovery). Ratios of the signal from pSer473Akt and total Akt assays were used to correct for any variability and the percent inhibition of pSer473Akt from the total signal seen in cells treated with compound versus DMSO alone was calculated and used to determine EC50 values for each compound.

| SMILES | EC50 |
| --- | --- |
| CC(C)N1CCC(Oc2ccc(Nc3cc(-c4cnc(N)cc4C(F)(F)F)nc(N4CCOCC4)n3)cc2)CC1 [Compound 552] | < 1000 nM |

same assay, conditions: Homo sapiens; inhibition of Akt phosphorylation, A2780 cells

| SMILES | EC50 |
| --- | --- |
| CC(C)N1CCC(Oc2ccc(Nc3cc(-c4cnc(N)cc4C(F)(F)F)nc(N4CCOCC4)n3)cn2)C1 (stereo not drawn) [Compound 93] | < 1000 nM |
| Nc1ccc(-c2cc(Nc3ccc4ncccc4c3)nc(N3CCOCC3)n2)cn1 [Compound 82] | < 1000 nM |
| N#Cc1cc(N)ncc1-c1cc(Nc2ccncc2C(F)(F)F)nc(N2CCOCC2)n1 [Compound 94] | < 1000 nM |
| CC(=O)N1CCC(Oc2cc(-c3cnc(N)[nH]c3=O)nc(N3CCOCC3)n2)CC1 [Compound 30] | < 1000 nM |
| Nc1ncc(-c2cc(OC3CCN(C(=O)OC4CCCC4)CC3)nc(N3CCOCC3)n2)c(=O)[nH]1 [Compound 47] | < 1000 nM |
| Nc1ncc(-c2cc(Nc3ccc4nccnc4c3)nc(N3CCOCC3)n2)cn1 [Compound 38] | < 1000 nM |
| Nc1ncc(-c2cc(Nc3cccc(F)c3)nc(N3CCOCC3)n2)cn1 [Compound 111] | < 1000 nM |
| COC(=O)N1CCC(Oc2cc(-c3cnc(N)[nH]c3=O)nc(N3CCOCC3)n2)CC1 [Compound 31] | < 1000 nM |
| Nc1ncc(-c2cc(OC3CCN(C(=O)OC4CCCC4)CC3)nc(N3CCOCC3)n2)c(N)n1 [Compound 97] | < 1000 nM |
| CN(C)CCOc1ccc(Nc2cc(-c3cnc(N)nc3)nc(N3CCOCC3)n2)cn1 [Compound 36] | < 1000 nM |
| CC(C)C(=O)N1CCC(Oc2cc(-c3cnc(N)[nH]c3=O)nc(N3CCOCC3)n2)CC1 [Compound 49] | < 1000 nM |
| Nc1ncc(-c2cc(Nc3ccc4c(c3)OCCO4)nc(N3CCOCC3)n2)cn1 [Compound 67] | < 1000 nM |

Other lines, results leading:

| EC50 | SMILES |
| --- | --- |
| < 1000 nM | COc1ccc2ncc(Nc3cc(-c4cnc(N)nc4C)nc(N4CCOCC4)n3)cc2c1 [Compound 154] |
| < 1000 nM | Nc1ccc(-c2cc(-n3ncc4c(N)cccc43)nc(N3CCOCC3)n2)cn1 [Compound 168] |
| < 1000 nM | Cn1cnnc1-c1cccc(Nc2cc(-c3cnc(N)cc3C(F)(F)F)nc(N3CCOCC3)n2)c1 [Compound 171] |
| < 1000 nM | COC(=O)N1CCC(Oc2cc(-c3cnc(N)cc3C(F)(F)F)nc(N3CCOCC3)n2)CC1 [Compound 117] |
| < 1000 nM | N#Cc1ccc(Nc2cc(-c3ccc(N)nc3)nc(N3CCOCC3)n2)cc1 [Compound 179] |
| < 1000 nM | N#Cc1ccnc(Nc2cc(-c3ccc(N)nc3)nc(N3CCOCC3)n2)c1 [Compound 152] |
| < 1000 nM | CS(=O)(=O)c1ccccc1Nc1cc(-c2ccc(N)nc2)nc(N2CCOCC2)n1 [Compound 141] |
| < 1000 nM | Nc1cc(C(F)(F)F)c(-c2cc(Nc3ccc(OC4CCNCC4)nc3)nc(N3CCOCC3)n2)cn1 [Compound 150] |

tested on: A2780 ovarian cancer cells; experiment: Cellular proliferation in A2780 cells, Cell Titer Glo (Biological Method 4); format: cell-based; conditions: Homo sapiens; ovarian cancer cell line A2780
Outline: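 A2780 cells seeded at 1,000/well in DMEM with 10% FBS, at least 2 h before compound, then exposed 72 h at 37 °C, 5% CO2. Viable cells measured by Cell Titer Glo luminescence; EC50 calculated from duplicate conditions.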

| SMILES | EC50 |
| --- | --- |
| CC(C)N1CCC(Oc2ccc(Nc3cc(-c4cnc(N)cc4C(F)(F)F)nc(N4CCOCC4)n3)cn2)C1 (stereo not drawn) [Compound 93] | < 1000 nM |
| Nc1ccc(-c2cc(Nc3ccc4ncccc4c3)nc(N3CCOCC3)n2)cn1 [Compound 82] | < 1000 nM |
| N#Cc1cc(N)ncc1-c1cc(Nc2ccncc2C(F)(F)F)nc(N2CCOCC2)n1 [Compound 94] | < 1000 nM |
| CC(=O)N1CCC(Oc2cc(-c3cnc(N)[nH]c3=O)nc(N3CCOCC3)n2)CC1 [Compound 30] | < 1000 nM |
| Nc1ncc(-c2cc(OC3CCN(C(=O)OC4CCCC4)CC3)nc(N3CCOCC3)n2)c(=O)[nH]1 [Compound 47] | < 1000 nM |
| Nc1ncc(-c2cc(Nc3ccc4nccnc4c3)nc(N3CCOCC3)n2)cn1 [Compound 38] | < 1000 nM |
| Nc1ncc(-c2cc(Nc3cccc(F)c3)nc(N3CCOCC3)n2)cn1 [Compound 111] | < 10000 nM |
| COC(=O)N1CCC(Oc2cc(-c3cnc(N)[nH]c3=O)nc(N3CCOCC3)n2)CC1 [Compound 31] | < 1000 nM |
| Nc1ncc(-c2cc(OC3CCN(C(=O)OC4CCCC4)CC3)nc(N3CCOCC3)n2)c(N)n1 [Compound 97] | < 1000 nM |
| CN(C)CCOc1ccc(Nc2cc(-c3cnc(N)nc3)nc(N3CCOCC3)n2)cn1 [Compound 36] | < 1000 nM |
| CC(C)C(=O)N1CCC(Oc2cc(-c3cnc(N)[nH]c3=O)nc(N3CCOCC3)n2)CC1 [Compound 49] | < 1000 nM |
| Nc1ncc(-c2cc(Nc3ccc4c(c3)OCCO4)nc(N3CCOCC3)n2)cn1 [Compound 67] | < 1000 nM |

Results, then the compound that gave them:

| EC50 | SMILES |
| --- | --- |
| < 1000 nM | COc1ccc2ncc(Nc3cc(-c4cnc(N)nc4C)nc(N4CCOCC4)n3)cc2c1 [Compound 154] |
| < 1000 nM | Nc1ccc(-c2cc(-n3ncc4c(N)cccc43)nc(N3CCOCC3)n2)cn1 [Compound 168] |
| < 1000 nM | Cn1cnnc1-c1cccc(Nc2cc(-c3cnc(N)cc3C(F)(F)F)nc(N3CCOCC3)n2)c1 [Compound 171] |
| < 10000 nM | COC(=O)N1CCC(Oc2cc(-c3cnc(N)cc3C(F)(F)F)nc(N3CCOCC3)n2)CC1 [Compound 117] |
| < 10000 nM | N#Cc1ccc(Nc2cc(-c3ccc(N)nc3)nc(N3CCOCC3)n2)cc1 [Compound 179] |
| < 10000 nM | N#Cc1ccnc(Nc2cc(-c3ccc(N)nc3)nc(N3CCOCC3)n2)c1 [Compound 152] |
| < 10000 nM | CS(=O)(=O)c1ccccc1Nc1cc(-c2ccc(N)nc2)nc(N2CCOCC2)n1 [Compound 141] |
| < 1000 nM | Nc1cc(C(F)(F)F)c(-c2cc(Nc3ccc(OC4CCNCC4)nc3)nc(N3CCOCC3)n2)cn1 [Compound 150] |
| < 10000 nM | CC(C)N1CCC(Oc2ccc(Nc3cc(-c4cnc(N)cc4C(F)(F)F)nc(N4CCOCC4)n3)cc2)CC1 [Compound 552] |

— patent publication US8217035B2, “Pyrimidine derivatives used as PI-3-kinase inhibitors” (Novartis AG, priority 2006, dated 2012)
